Measurements taken from PubChem BioAssay (NCI).
Values joined by “and” are separate entries in the source; they are usually repeats but may differ in a detail not shown here. Equal values may be shown once.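 Cells were grown in 96-well plates and exposed to each compound for 48 hours at five concentrations; endpoints were interpolated linearly between bracketing concentrations, or set to the highest concentration if not reached. The concentration for 50% growth inhibition is given as GI50. At the TGI there is no net growth.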

Assays:
Assay in all cases: NCI tumour cell line growth inhibition, 48 h
786-0 renal = system: 786-0 renal
A498 renal = system: A498 renal
A549 NSCLC = system: A549 NSCLC
ACHN renal = system: ACHN renal
BT-549 breast = system: BT-549 breast
CAKI-1 renal = system: CAKI-1 renal
CCRF-CEM leukemia = system: CCRF-CEM leukemia
COLO 205 colon = system: COLO 205 colon
DU-145 prostate = system: DU-145 prostate
EKVX NSCLC = system: EKVX NSCLC
HCT-116 colon = system: HCT-116 colon
HCT-15 colon = system: HCT-15 colon
HL-60(TB) leukemia = system: HL-60(TB) leukemia
HOP-62 NSCLC = system: HOP-62 NSCLC
HOP-92 NSCLC = system: HOP-92 NSCLC
HS 578T breast = system: HS 578T breast
HT29 colon = system: HT29 colon
IGROV1 ovarian = system: IGROV1 ovarian
K-562 leukemia = system: K-562 leukemia
KM12 colon = system: KM12 colon
LOX IMVI melanoma = system: LOX IMVI melanoma
M14 melanoma = system: M14 melanoma
MALME-3M melanoma = system: MALME-3M melanoma
MCF7 breast = system: MCF7 breast
MDA-MB-231 breast = system: MDA-MB-231 breast
MDA-MB-435 = system: MDA-MB-435
MOLT-4 leukemia = system: MOLT-4 leukemia
NCI-H226 lung = system: NCI-H226 lung
NCI-H23 lung = system: NCI-H23 lung
NCI-H460 lung = system: NCI-H460 lung
NCI-H522 lung = system: NCI-H522 lung
NCI/ADR-RES ovarian = system: NCI/ADR-RES ovarian
OVCAR-3 ovarian = system: OVCAR-3 ovarian
OVCAR-4 ovarian = system: OVCAR-4 ovarian
OVCAR-5 ovarian = system: OVCAR-5 ovarian
OVCAR-8 ovarian = system: OVCAR-8 ovarian
RPMI-8226 leukemia = system: RPMI-8226 leukemia
RXF 393 renal = system: RXF 393 renal
SF-268 CNS = system: SF-268 CNS
SF-295 CNS = system: SF-295 CNS
SF-539 CNS = system: SF-539 CNS
SK-MEL-2 melanoma = system: SK-MEL-2 melanoma
SK-MEL-28 melanoma = system: SK-MEL-28 melanoma
SK-OV-3 ovarian = system: SK-OV-3 ovarian
SN12C renal = system: SN12C renal
SNB-19 CNS = system: SNB-19 CNS
SNB-75 CNS = system: SNB-75 CNS
SR leukemia = system: SR leukemia
SW-620 colon = system: SW-620 colon
T-47D breast = system: T-47D breast
U251 CNS = system: U251 CNS
UACC-257 melanoma = system: UACC-257 melanoma
UACC-62 melanoma = system: UACC-62 melanoma
UO-31 renal = system: UO-31 renal

For `Nc1ccn([C@@H]2O[C@H](COP(=O)(O)O[C@@H]3C[C@H](n4cc(F)c(=O)[nH]c4=O)O[C@@H]3COP(=O)(O)O[C@@H]3C[C@H](n4cc(F)c(=O)[nH]c4=O)O[C@@H]3COP(=O)(O)O[C@@H]3C[C@H](n4cc(F)c(=O)[nH]c4=O)O[C@@H]3COP(=O)(O)O[C@@H]3C[C@H](n4cc(F)c(=O)[nH]c4=O)O[C@@H]3COP(=O)(O)O[C@@H]3C[C@H](n4cc(F)c(=O)[nH]c4=O)O[C@@H]3COP(=O)(O)O[C@@H]3C[C@H](n4cc(F)c(=O)[nH]c4=O)O[C@@H]3COP(=O)(O)O[C@@H]3C[C@H](n4cc(F)c(=O)[nH]c4=O)O[C@@H]3COP(=O)(O)O[C@@H]3C[C@H](n4cc(F)c(=O)[nH]c4=O)O[C@@H]3COP(=O)(O)O[C@@H]3C[C@H](n4cc(F)c(=O)[nH]c4=O)O[C@@H]3COP(=O)(O)O[C@@H]3C[C@H](n4cc(F)c(=O)[nH]c4=O)O[C@@H]3COP(=O)(O)OCCOCCOCCOCCOCCOCCO)[C@H](O)C2O)c(=O)n1` (stereo not given in full), the GI50 (786-0 renal) was 0.00777 µM and 0.0131 µM, the TGI (786-0 renal) was 21.1 µM and > 100 µM and the GI50 (A498 renal) was 0.0204 µM and 0.0631 µM. The TGI (A498 renal) was 21.1 µM and > 100 µM, the GI50 (A549 NSCLC) was 0.00284 µM and the TGI (A549 NSCLC) was 21.1 µM and > 100 µM. For the same compound, the GI50 (ACHN renal) was 0.00745 µM, the TGI (ACHN renal) was 21.1 µM and > 100 µM and the GI50 (BT-549 breast) was 0.674 µM and 0.568 µM. For the same compound, the TGI (BT-549 breast) was 21.1 µM and > 100 µM, the GI50 (CAKI-1 renal) was 0.00832 µM and the TGI (CAKI-1 renal) was 21.1 µM and > 100 µM. For the same compound, the GI50 (CCRF-CEM leukemia) was 0.0101 µM and 0.0175 µM, the TGI (CCRF-CEM leukemia) was 21.1 µM and > 100 µM and the GI50 (COLO 205 colon) was 0.00973 µM. For the same compound, the TGI (COLO 205 colon) was 21.1 µM and > 100 µM, the GI50 (DU-145 prostate) was 0.0185 µM and 0.0254 µM and the TGI (DU-145 prostate) was 21.1 µM and > 100 µM. For the same compound, the TGI (EKVX NSCLC) was greater than 100 µM, the GI50 (HCT-116 colon) was 0.013 µM and the TGI (HCT-116 colon) was 21.1 µM and > 100 µM. The GI50 (HCT-15 colon) was 0.697 µM and 0.179 µM, the TGI (HCT-15 colon) was 21.1 µM and > 100 µM and the TGI (HL-60(TB) leukemia) was 21.1 µM and > 100 µM. The GI50 (HOP-62 NSCLC) was 0.00841 µM, the TGI (HOP-62 NSCLC) was 21.1 µM and > 100 µM and the GI50 (HOP-92 NSCLC) was 3.86 µM and 14.1 µM. For the same compound, the TGI (HOP-92 NSCLC) was 21.1 µM and > 100 µM, the GI50 (HS 578T breast) was greater than 100 µM and the TGI (HS 578T breast) was greater than 100 µM. The GI50 (HT29 colon) was 0.0171 µM, the TGI (HT29 colon) was 21.1 µM and > 100 µM and the GI50 (IGROV1 ovarian) was 1.63 µM and 1.45 µM. The TGI (IGROV1 ovarian) was 21.1 µM and > 100 µM, the GI50 (K-562 leukemia) was 0.489 µM and 0.0858 µM and the TGI (K-562 leukemia) was 21.1 µM and > 100 µM. The GI50 (KM12 colon) was 0.178 µM, the TGI (KM12 colon) was 21.1 µM and the GI50 (LOX IMVI melanoma) was 0.0054 µM. For the same compound, the TGI (LOX IMVI melanoma) was 21.1 µM and > 100 µM, the GI50 (M14 melanoma) was 0.00911 µM and 0.0126 µM and the TGI (M14 melanoma) was 2.56 µM and 4.9 µM. For the same compound, the GI50 (MALME-3M melanoma) was 2.37 µM and 11.8 µM, the TGI (MALME-3M melanoma) was 21.1 µM and > 100 µM and the GI50 (MCF7 breast) was 0.00211 µM. For the same compound, the TGI (MCF7 breast) was 21.1 µM and > 100 µM, the TGI (MDA-MB-231 breast) was 21.1 µM and > 100 µM and the GI50 (MDA-MB-435) was 1.28 µM and 0.233 µM. For the same compound, the TGI (MDA-MB-435) was 21.1 µM and > 100 µM, the GI50 (MOLT-4 leukemia) was 0.0246 µM and 0.0443 µM and the TGI (MOLT-4 leukemia) was 21.1 µM and > 100 µM. For the same compound, the GI50 (NCI-H226 lung) was 9.21 µM and 24.6 µM, the TGI (NCI-H226 lung) was 21.1 µM and > 100 µM and the GI50 (NCI-H23 lung) was 0.0255 µM and 0.0445 µM. For the same compound, the TGI (NCI-H23 lung) was 21.1 µM and > 100 µM, the GI50 (NCI-H460 lung) was 0.00211 µM and the TGI (NCI-H460 lung) was 21.1 µM and > 100 µM. The TGI (NCI-H522 lung) was 21.1 µM and > 100 µM, the GI50 (NCI/ADR-RES ovarian) was 0.0146 µM and 0.0121 µM and the TGI (NCI/ADR-RES ovarian) was 21.1 µM and > 100 µM. The GI50 (OVCAR-3 ovarian) was greater than 100 µM, the TGI (OVCAR-3 ovarian) was greater than 100 µM and the GI50 (OVCAR-4 ovarian) was > 21.1 µM and 89.5 µM. It also gave a TGI (OVCAR-4 ovarian) greater than 100 µM, a GI50 (OVCAR-5 ovarian) greater than 100 µM and a TGI (OVCAR-5 ovarian) greater than 100 µM. For the same compound, the GI50 (OVCAR-8 ovarian) was 0.0132 µM, the TGI (OVCAR-8 ovarian) was 21.1 µM and > 100 µM and the GI50 (RPMI-8226 leukemia) was 0.332 µM and 1.71 µM. For the same compound, the TGI (RPMI-8226 leukemia) was 21.1 µM and > 100 µM, the GI50 (RXF 393 renal) was 0.846 µM and 0.684 µM and the TGI (RXF 393 renal) was 21.1 µM and 70.4 µM. The GI50 (SF-268 CNS) was 0.00514 µM, the TGI (SF-268 CNS) was 21.1 µM and > 100 µM and the GI50 (SF-295 CNS) was 0.00328 µM. The TGI (SF-295 CNS) was 21.1 µM and > 100 µM, the GI50 (SF-539 CNS) was 0.00565 µM and the TGI (SF-539 CNS) was 21.1 µM and > 100 µM. The TGI (SK-MEL-2 melanoma) was greater than 100 µM, the TGI (SK-MEL-28 melanoma) was 21.1 µM and > 100 µM and the GI50 (SK-OV-3 ovarian) was 0.011 µM and 0.0185 µM. For the same compound, the TGI (SK-OV-3 ovarian) was 21.1 µM and > 100 µM, the GI50 (SN12C renal) was 0.0124 µM and the TGI (SN12C renal) was 21.1 µM. For the same compound, the GI50 (SNB-19 CNS) was 0.0721 µM and 0.0219 µM, the TGI (SNB-19 CNS) was 21.1 µM and > 100 µM and the GI50 (SNB-75 CNS) was 4.33 µM and 10.3 µM. For the same compound, the TGI (SNB-75 CNS) was 21.1 µM and > 100 µM, the GI50 (SR leukemia) was 0.621 µM and the TGI (SR leukemia) was 21.1 µM and > 100 µM. For the same compound, the GI50 (SW-620 colon) was 4.23 µM and 2.6 µM, the TGI (SW-620 colon) was 21.1 µM and > 100 µM and the TGI (T-47D breast) was 21.1 µM and > 100 µM. For the same compound, the GI50 (U251 CNS) was 0.0101 µM, the TGI (U251 CNS) was 21.1 µM and > 100 µM and the GI50 (UACC-257 melanoma) was 0.11 µM and 0.062 µM. For the same compound, the TGI (UACC-257 melanoma) was 21.1 µM and > 100 µM, the GI50 (UACC-62 melanoma) was 0.00557 µM and 0.0279 µM and the GI50 (UO-31 renal) was 0.00659 µM. For the same compound, the TGI (UO-31 renal) was 6.57 µM and 7.3 µM.
